Experimental data reported in patent EP4198033A1, “HETEROCYCLIC COMPOUNDS FOR THE CONTROL OF INVERTEBRATE PESTS” (priority 2021, dated 2023).

Columns and labels:
Assay type in all cases: in vivo
[1] = test system: Diamond back moth (Plutella xylostella); assay: Diamond back moth leaf-dip test on cabbage leaves; conditions: 72 h, read-out: mortality in comparison with untreated controls
Method: The active compound was dissolved at the desired concentration in a mixture of 1:1 (vol:vol) distilled water: acetone. Surfactant (Kinetic HV) was added at a rate of 0.01% (vol/vol). The test solution was prepared on the day of use.
Leaves of cabbage were dipped in test solution and air-dried. Treated leaves were placed in petri dishes lined with moist filter paper and inoculated with ten 3rd instar larvae. Mortality was recorded 72 hours after treatment. Feeding damages were also recorded using a scale of 0-100%.

[2] = test system: Boll weevil (Anthonomus grandis); assay: Boll weevil test, insect diet with eggs in 96-well microtiter plates; conditions: 120 h, egg and larval mortality, 5 days, read-out: mortality in comparison with untreated controls
Method: For evaluating control of boll weevil (Anthonomus grandis) the test unit consisted of 96-well-microtiter plates containing an insect diet and 5-10 A. grandis eggs.
The compounds were formulated using a solution containing 75% v/v water and 25% v/v DMSO. Different concentrations of formulated compounds were sprayed onto the insect diet at 5 µl, using a custom-built micro atomizer, at two replications.
After application, microtiter plates were incubated at about 25±1°C and about 75±5 % relative humidity for 5 days. Egg and larval mortality was then visually assessed.

[3] = test system: Southern armyworm (Spodoptera eridania), 2nd instar larvae; assay: Southern armyworm foliar spray test on lima bean plants; conditions: 96 h, 4 days after treatment, read-out: mortality in comparison with untreated controls
Method: The active compounds were formulated by a Tecan liquid handler in 100% cyclohexanone as a 10,000-ppm solution supplied in tubes. The 10,000-ppm solution was serially diluted in 100% cyclohexanone to make interim solutions. These served as stock solutions for which final dilutions were made by the Tecan in 50% acetone:50% water (v/v) into 10 or 20ml glass vials. A nonionic surfactant (Kinetic®) was included in the solution at a volume of 0.01% (v/v). The vials were then inserted into an automated electrostatic sprayer equipped with an atomizing nozzle for application to plants/insects. Lima bean plants (variety Sieva) were grown 2 plants to a pot and selected for treatment at the 1st true leaf stage. Test solutions were sprayed onto the foliage by an automated electrostatic plant sprayer equipped with an atomizing spray nozzle. The plants were dried in the sprayer fume hood and then removed from the sprayer. Each pot was placed into perforated plastic bags with a zip closure. Ten to 11 armyworm larvae were placed into the bag and the bags zipped closed. Test plants were maintained in a growth room at about 25°C and about 20-40% relative humidity for 4 days, avoiding direct exposure to fluorescent light (14:10 light:dark photoperiod) to prevent trapping of heat inside the bags. Mortality and reduced feeding were assessed 4 days after treatment, compared to untreated control plants.

[4] = test system: Tobacco budworm (Heliothis virescens); assay: Tobacco budworm test, insect diet with eggs in 96-well microtiter plates; conditions: 120 h, egg and larval mortality, 5 days, read-out: mortality in comparison with untreated controls
Method: For evaluating control of tobacco budworm (Heliothis virescens) the test unit consisted of 96-well-microtiter plates containing an insect diet and 15-25 H. virescens eggs.
The compounds were formulated using a solution containing 75% v/v water and 25% v/v DMSO. Different concentrations of formulated compounds were sprayed onto the insect diet at 10 µl using a custom-built micro atomizer, at two replications.
After application, microtiter plates were incubated at about 28±1°C and about 80±5 % relative humidity for 5 days. Egg and larval mortality was then visually assessed.

[5] = test system: Yellow fever mosquito (Aedes aegypti); assay: whole plant or invertebrate; conditions: 48 h, larval mortality, 2 days, read-out: mortality in comparison with untreated controls
Method: For evaluating control of yellow fever mosquito (Aedes aegypti) the test unit consisted of 96-well-microtiter plates containing 200µl of tap water per well and 5-15 freshly hatched A. aegypti larvae.
The active compounds were formulated using a solution containing 75% (v/v) water and 25% (v/v) DMSO. Different concentrations of formulated compounds or mixtures were sprayed onto the insect diet at 2.5µl, using a custom-built micro atomizer, at two replications.
After application, microtiter plates were incubated at 28±1 °C, 80±5 % RH for 2 days. Larval mortality was then visually assessed.

[6] = test system: Green Peach Aphid (Myzus persicae); assay: Green peach aphid systemic test, artificial diet in 96-well microtiter plates; conditions: 72 h, adult aphids, 3 days, read-out: mortality in comparison with untreated controls
Source text: For evaluating control of green peach aphid (Myzus persicae) through systemic means the test unit consisted of 96-well-microtiter plates containing liquid artificial diet under an artificial mem brane.
The compounds were formulated using a solution containing 75% v/v water and 25% v/v DMSO. Different concentrations of formulated compounds were pipetted into the aphid diet, using a custom built pipetter, at two replications.
After application, 5-8 adult aphids were placed on the artificial membrane inside the microtiter plate wells. The aphids were then allowed to suck on the treated aphid diet and incubated at about 23±1°C and about 50±5 % relative humidity for 3 days. Aphid mortality and fecundity was then visually assessed.

CC(NC(=O)c1cc(Br)cc(C(F)(F)F)c1)c1ocnc1-c1ncc(OC(F)F)cn1 (centres unmarked) [I-1, 3-bromo-N-[1-[4-[5-(difluoromethoxy)pyrimidin-2-yl]oxazol-5-yl]ethyl]-5-(trifluoromethyl)benzamide]
≥ 75%: mortality at 300 ppm [1] | mortality at 2500 ppm [2] | mortality at 300 ppm [3] | mortality at 2500 ppm [4] | mortality at 2500 ppm [5]

CC(NC(=O)c1cc(OC(F)F)cc(C(F)(F)F)c1)c1ncoc1-c1ncccn1 (centres unmarked) [I-3, 3-(difluoromethoxy)-N-[1-(5-pyrimidin-2-yloxazol-4-yl)ethyl]-5-(trifluoromethyl)benzamide]
≥ 75%: mortality at 2500 ppm [6] | mortality at 2500 ppm [2] | mortality at 300 ppm [3] | mortality at 2500 ppm [5]

CCN(C(=O)c1cc(OC(F)F)cc(C(F)(F)F)c1)C(C)c1ncoc1-c1ncccn1 (centres unmarked) [I-5, 3-(difluoromethoxy)-N-ethyl-N-[1-(5-pyrimidin-2-yloxazol-4-yl)ethyl]-5-(trifluoromethyl)benzamide]
≥ 75%: mortality at 2500 ppm [6] | mortality at 2500 ppm [2]
